Results published in patent publication US20200102295A1, “NITROCATECHOL DERIVATIVES AS COMT INHIBITORS” (BIAL - PORTELA & CA, S.A., priority 2005, published 2020).

Legend:
[1] = system: Neuro 2A mouse neuroblastoma cells; assay: Cell toxicity: Neuro 2A cell viability (calcein-AM); assay type: cell-based; settings: Neuro 2A cells, 30 μM, 24 h exposure
rat liver COMT = target: T1, rat liver COMT (Rattus norvegicus, UniProt P22734); assay: Rat liver COMT activity after oral administration of test compounds; assay type: in vivo; settings: 3 mg/kg oral
T1 construct: the organs were immediately removed and homogenised in 5 mM phosphate buffer of pH 7.8; from tissue; host or cells: rat liver homogenate (Wistar rats, dosed orally; ex vivo activity)
T1 sequence (P22734 1-264): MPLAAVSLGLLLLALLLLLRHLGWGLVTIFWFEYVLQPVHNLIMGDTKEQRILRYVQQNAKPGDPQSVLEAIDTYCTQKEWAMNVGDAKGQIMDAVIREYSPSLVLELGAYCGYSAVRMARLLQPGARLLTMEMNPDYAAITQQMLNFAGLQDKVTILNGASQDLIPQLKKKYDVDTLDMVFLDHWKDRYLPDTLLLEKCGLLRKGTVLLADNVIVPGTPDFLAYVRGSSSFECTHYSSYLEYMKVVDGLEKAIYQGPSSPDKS

mouse liver COMT = target: T2, mouse liver COMT (Mus musculus, UniProt O88587); assay: Mouse liver COMT activity after oral administration of test compounds; assay type: in vivo; settings: 3 mg/kg oral, 3 h after administration
T2 construct: Aliquots of 0.5 ml of liver homogenates were preincubated; from tissue; host or cells: mouse liver homogenate (NMRI mice, dosed orally; ex vivo activity)
T2 sequence (O88587 1-265): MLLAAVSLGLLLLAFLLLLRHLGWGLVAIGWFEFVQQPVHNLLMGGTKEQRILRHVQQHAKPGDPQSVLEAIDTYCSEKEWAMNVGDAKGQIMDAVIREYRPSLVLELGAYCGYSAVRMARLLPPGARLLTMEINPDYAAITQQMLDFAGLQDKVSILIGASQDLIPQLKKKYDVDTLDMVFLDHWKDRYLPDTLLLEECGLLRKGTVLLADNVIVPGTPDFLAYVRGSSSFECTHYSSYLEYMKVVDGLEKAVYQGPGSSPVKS

[2] = system: plasma levels of L-DOPA and 3-O-methyl-L-DOPA (3-OMD); assay: Levels of L-DOPA and 3-O-methyl-L-DOPA in plasma of rats treated with L-DOPA plus benserazide; assay type: in vivo, rat; settings: 3 mg/kg oral, 2 h after administration; for L-DOPA % increase (plasma level, % control) / 3-OMD % reduction (plasma level, % control): L-DOPA plus benserazide 1 h before plasma collection; for 3-OMD % reduction (plasma level, % control): given with minus sign; for L-Dopa/3-OMD: plasma ratio

Row | Structure (SMILES) | % of viable cells [1] [%] | Rat Liver COMT activity (% control) (rat liver COMT; 1 h after administration) | Rat Liver COMT activity (% control) (rat liver COMT; 3 h after administration) | Rat Liver COMT activity (% control) (rat liver COMT; 6 h after administration) | Rat Liver COMT activity (% control) (rat liver COMT; 9 h after administration) | COMT activity (% of control) (mouse liver COMT) | L-DOPA % increase (plasma level, % control) [2] [%] | 3-OMD % reduction (plasma level, % control) [2] [%] | L-Dopa/3-OMD [2]
1 | O=[N+]([O-])c1cc(-c2nc(-c3c[n+]([O-])ccc3C(F)(F)F)no2)cc(O)c1O [Compound 18, 3-Nitro-5-[3-(1-oxy-4-trifluoromethyl-pyridin-3-yl)-[1,2,4]oxadiazol-5-yl]-benzene-1,2-diol] | 93.4 | 5.2 | 19.9 | 43.0 | 57.4 | 21.2 % of control | 61.4 | −63.9 | 4.5
2 | Cc1c(-c2noc(-c3cc(O)c(O)c([N+](=O)[O-])c3)n2)ccc(C(F)(F)F)[n+]1[O-] [Compound 29, 5-[3-(2-Methyl-1-oxy-6-trifluoromethyl-pyridin-3-yl)-[1,2,4]oxadiazol-5-yl]-3-nitro-benzene-1,2-diol] | 62.2 | 1.2 | 18.5 | 39.7 | 56.4 | 10.9 % of control | 105.1 | −80.7 | 10.6
3 | Cc1cc(C(F)(F)F)c(-c2noc(-c3cc(O)c(O)c([N+](=O)[O-])c3)n2)c[n+]1[O-] [Compound 30, 5-[3-(6-Methyl-1-oxy-4-trifluoromethyl-pyridin-3-yl)-[1,2,4]oxadiazol-5-yl]-3-nitro-benzene-1,2-diol] | 81.8 | 6.3 | 34.8 | 41.2 | 54.5 | 8.8 % of control | 103.5 | −75.0 | 8.1
4 | Cc1cc(C(F)(F)F)c(-c2noc(-c3cc(O)c(O)c([N+](=O)[O-])c3)n2)c(C)[n+]1[O-] [Compound 31, 5-[3-(2,6-Dimethyl-1-oxy-4-trifluoromethyl-pyridin-3-yl)-[1,2,4]oxadiazol-5-yl]-3-nitro-benzene-1,2-diol] | 37.2 | – | – | – | – | 0.8 % of control | – | – | –
5 | Cc1c(-c2noc(-c3cc(O)c(O)c([N+](=O)[O-])c3)n2)c(C(F)(F)F)cc(-c2ccccc2)[n+]1[O-] [Compound 32, 5-[3-(2-Methyl-1-oxy-6-phenyl-4-trifluoromethyl-pyridin-3-yl)-[1,2,4]oxadiazol-5-yl]-3-nitro-benzene-1,2-diol] | 26.6 | – | – | – | – | 9.7 % of control | – | – | –
6 | Cc1cc(C(F)(F)F)c(-c2noc(-c3cc(O)c(O)c([N+](=O)[O-])c3)n2)c(-c2ccccc2)[n+]1[O-] [Compound 33, 5-[3-(6-Methyl-1-oxy-2-phenyl-4-trifluoromethyl-pyridin-3-yl)-[1,2,4]oxadiazol-5-yl]-3-nitro-benzene-1,2-diol] | 45.0 | – | – | – | – | 39.8 % of control | – | – | –
7 | Cc1ccc(-c2noc(-c3cc(O)c(O)c([N+](=O)[O-])c3)n2)c(Br)[n+]1[O-] [Compound 36, 5-[3-(2-Bromo-6-methyl-1-oxy-pyridin-3-yl)-[1,2,4]oxadiazol-5-yl]-3-nitro-benzene-1,2-diol] | 76.3 | – | – | – | – | 22.9 % of control | – | – | –
8 | Cc1cc(C)[n+]([O-])c(Cl)c1-c1noc(-c2cc(O)c(O)c([N+](=O)[O-])c2)n1 [Compound 37, 5-[3-(2-Chloro-4,6-dimethyl-1-oxy-pyridin-3-yl)-[1,2,4]oxadiazol-5-yl]-3-nitro-benzene-1,2-diol] | 92.3 | – | – | – | – | 42.5 % of control | – | – | –
9 | Cc1cc(C)[n+]([O-])c(Br)c1-c1noc(-c2cc(O)c(O)c([N+](=O)[O-])c2)n1 [Compound 38, 5-[3-(2-Bromo-4,6-dimethyl-1-oxy-pyridin-3-yl)-[1,2,4]oxadiazol-5-yl]-3-nitro-benzene-1,2-diol] | 86.0 | – | – | – | – | 16.3 % of control | – | – | –
10 | O=[N+]([O-])c1cc(-c2nc(Cc3ccc[n+]([O-])c3)no2)cc(O)c1O [Compound 39, 3-Nitro-5-[3-(1′-oxy-pyridin-3-ylmethyl)-[1,2,4]oxadiazol-5-yl]-benzenediol] | 94.9 | – | – | – | – | 53.8 % of control | – | – | –
11 | Cc1c(C)c(C)[n+]([O-])c(Br)c1-c1noc(-c2cc(O)c(O)c([N+](=O)[O-])c2)n1 [Compound 40, 5-[3-(2-Bromo-4,5,6-trimethyl-1-oxy-pyridin-3-yl)-[1,2,4]oxadiazol-5-yl]-3-nitrobenzene-1,2-diol] | 69.1 | – | – | – | – | 55.2 % of control | – | – | –
12 | Cc1c(C)c(C)[n+]([O-])c(Cl)c1-c1noc(-c2cc(O)c(O)c([N+](=O)[O-])c2)n1 [Compound 41, 5-[3-(2-Chloro-4,5,6-trimethyl-1-oxy-pyridin-3-yl)-[1,2,4]oxadiazol-5-yl]-3-nitrobenzene-1,2-diol] | 95.1 | 21.2 | 9.3 | 18.8 | 39.7 | 14 % of control | 95.2 | −72.3 | 7.1
13 | O=[N+]([O-])c1cc(-c2nc(-c3ccc[n+]([O-])c3C(F)(F)F)no2)cc(O)c1O [Compound 42, 3-Nitro-5-[3-(1-oxy-2-trifluoromethyl-pyridin-3-yl)-[1,2,4]oxadiazol-5-yl]-benzene-1,2-diol] | 96.4 | 3.6 | 6.1 | 12.3 | 30.9 | 9.4 % of control | 30.7 | −43.4 | 2.3
14 | O=[N+]([O-])c1cc(-c2nc(Cc3ccc(C(F)(F)F)[n+]([O-])c3)no2)cc(O)c1O [Compound 43, 3-Nitro-5-[3-(1′-oxy-6-trifluoromethyl-pyridine-3-ylmethyl)-[1,2,4]oxadiazol-5-yl]-benzene-1,2-diol] | 101.5 | 16.1 | 30.6 | 64.3 | 77.9 | 27.2 % of control | 74.9 | −48.3 | 3.4
15 | Cc1c(Cl)c(C)[n+]([O-])c(Cl)c1-c1noc(-c2cc(O)c(O)c([N+](=O)[O-])c2)n1 [Compound 45, 5-[3-(2,5-Dichloro-4,6-dimethyl-1-oxy-pyridin-3-yl)-[1,2,4]oxadiazol-5-yl]-3-nitrobenzene-1,2-diol] | 86.6 | – | – | – | – | 30.4 % of control | 100.8 | −54.3 | 4.4
16 | Cc1c(-c2noc(-c3cc(O)c(O)c([N+](=O)[O-])c3)n2)c[n+]([O-])c(C)c1C [Compound 46, 3-Nitro-5-[3-(4,5,6-trimethyl-1-oxy-pyridin-3-yl)-[1,2,4]oxadiazol-5-yl]-benzene-1,2-diol] | 53.0 | – | – | – | – | 43.1 % of control | – | – | –
17 | Cc1c(Cl)c(C)[n+]([O-])c(Br)c1-c1noc(-c2cc(O)c(O)c([N+](=O)[O-])c2)n1 [Compound 47, 5-[3-(2-Bromo-5-chloro-4,6-dimethyl-1-oxy-pyridin-3-yl)-[1,2,4]oxadiazol-5-yl]-3-nitrobenzene-1,2-diol] | 81.2 | 10.6 | 4.0 | 3.8 | 8.2 | 25.2 % of control | 102.9 | −58.5 | 4.9
18 | CCN(CC)C(=O)/C(C#N)=C/c1cc(O)c(O)c([N+](=O)[O-])c1 [Entacapone, (E)-2-cyano-N,N-diethyl-3-(3,4-dihydroxy-5-nitrophenyl)acrylamide, reference compound] | – | – | – | – | – | – | 68.5 | −55.6 | 3.8
